Target: T1, Dihydrofolate reductase (Pneumocystis carinii, UniProt P16184)
T1 sequence (P16184 whole entry): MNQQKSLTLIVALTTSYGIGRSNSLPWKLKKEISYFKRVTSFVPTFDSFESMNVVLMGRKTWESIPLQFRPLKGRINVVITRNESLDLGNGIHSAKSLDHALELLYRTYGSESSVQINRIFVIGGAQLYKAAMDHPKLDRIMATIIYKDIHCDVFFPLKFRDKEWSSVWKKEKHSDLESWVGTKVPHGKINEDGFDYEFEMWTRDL
Test: Inhibition of Pneumocystis carinii DHFR

| SMILES | IC50 [nM] |
| --- | --- |
| CCc1nc(N)nc(N)c1-c1ccc(Cl)c(N(C)Cc2ccccc2)c1 | 1070 |
| CCc1nc2nc(N)nc(N)c2nc1CC | 620 |
| COc1cc(Cc2cnc(N)nc2N)cc(C#CCCC(=O)O)c1OC | 1000 |

Further compounds by falling IC50, results first:

| IC50 [nM] | SMILES |
| --- | --- |
| 711 | COc1cc(C)c2c(OC3CCCCC3C(F)(F)F)c(OC)cc(NC(C)CCCN)c2n1 (stereo not given) |
| 170 | N=C(N)c1ccc(N2CCN(c3ccc(-c4nc5ccccc5[nH]4)cc3)CC2)cc1 |

— ChEMBL document CHEMBL3045753, “In silico ligand-based pharmacophore model generation for the identification of novel Pneumocystis carinii DHFR inhibitors” (Med Chem Res, 2013)
